The source made the active and inactive calls. The calls are words filed in the database; no cut-off is given here.
Assays:
Neutrophil [1] = assay: cells; conditions: Homo sapiens
Cathepsin G = target: T1, Cathepsin G (Homo sapiens, UniProt P08311); assay: Inhibition of human cathepsin G using N-succinyl-Ala-Ala-Pro-Phe-p-nitroanilide as substrate measured for 180 mins by spectrophotometry
T1 sequence (P08311 whole entry): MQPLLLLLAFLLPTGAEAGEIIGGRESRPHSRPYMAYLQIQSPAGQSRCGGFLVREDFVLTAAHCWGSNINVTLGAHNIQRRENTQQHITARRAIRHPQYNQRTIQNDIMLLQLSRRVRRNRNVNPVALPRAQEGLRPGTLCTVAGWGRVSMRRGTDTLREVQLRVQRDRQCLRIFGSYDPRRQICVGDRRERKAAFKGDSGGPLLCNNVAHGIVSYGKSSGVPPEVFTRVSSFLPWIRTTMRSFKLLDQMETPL

Neutrophil elastase [2] = target: T2, Neutrophil elastase (Homo sapiens, UniProt P08246); assay: Inhibition of human neutrophil elastase measured for 30 mins by spectrophotometry
T2 sequence (P08246 whole entry): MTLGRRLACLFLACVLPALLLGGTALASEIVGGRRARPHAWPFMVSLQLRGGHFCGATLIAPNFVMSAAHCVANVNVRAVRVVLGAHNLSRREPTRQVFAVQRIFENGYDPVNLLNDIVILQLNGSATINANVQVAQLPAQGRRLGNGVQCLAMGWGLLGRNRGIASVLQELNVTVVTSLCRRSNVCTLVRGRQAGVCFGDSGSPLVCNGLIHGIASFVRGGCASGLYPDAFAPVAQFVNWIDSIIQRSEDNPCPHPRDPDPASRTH

Neutrophil [3] = assay: cells; conditions: Homo sapiens; remark: listed apart in the source
Myeloblastin = target: T3, Myeloblastin (Homo sapiens, UniProt P24158); assay: Inhibition of Pr3 (unknown origin) using t-butyloxycarbonyl-Ala-Ala-Nva-thiobenzyl ester as substrate measured for 180 mins by spectrophotometry
T3 sequence (P24158 whole entry): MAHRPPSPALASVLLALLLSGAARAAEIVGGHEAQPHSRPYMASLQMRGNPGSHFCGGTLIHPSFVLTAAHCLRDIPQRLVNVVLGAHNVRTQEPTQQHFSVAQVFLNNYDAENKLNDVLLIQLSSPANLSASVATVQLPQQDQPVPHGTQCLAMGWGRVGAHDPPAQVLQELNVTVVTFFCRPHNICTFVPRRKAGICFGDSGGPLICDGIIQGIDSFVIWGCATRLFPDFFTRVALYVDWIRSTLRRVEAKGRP

Mus musculus [4] = assay: Antiinflammatory activity in C57BL/6 mouse assessed as inhibition of LPS-induced edema compound treated 1 hr prior challenge at 100 mg/kg, ip measured up to 240 mins; format: functional, organism-based; set-up: dose 100 mg/kg
Mus musculus [5] = assay: Protection from LPS-induced acute lung injury in C57BL/6 mouse assessed as inhibition of LPS-induced alveolar thickening treated 1 hr prior LPS challenge at 100 mg/kg, ip measured 6 hrs post LPS injection by hematoxylin and eosin staining method
Neutrophil elastase [6] = target: T4, Neutrophil elastase (Mus musculus, UniProt Q3UP87); assay: Inhibition of recombinant mouse neutrophil elastase using methoxysuccinyl-Ala-Ala-Pro-Val-pnitroanilide as substrate preincubated for 15 mins before substrate addition measured after 90 mins by spectrophotometry
T4 sequence (Q3UP87 whole entry): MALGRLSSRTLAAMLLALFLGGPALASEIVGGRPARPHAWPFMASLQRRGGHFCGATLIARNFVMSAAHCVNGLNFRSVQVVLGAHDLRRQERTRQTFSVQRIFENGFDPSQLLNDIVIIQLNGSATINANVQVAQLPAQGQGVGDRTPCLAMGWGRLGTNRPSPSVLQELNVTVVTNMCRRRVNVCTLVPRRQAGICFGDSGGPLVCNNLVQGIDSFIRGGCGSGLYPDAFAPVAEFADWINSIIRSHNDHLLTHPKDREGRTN

Mus musculus [7] = assay: Protection from LPS-induced acute lung injury in C57BL/6 mouse assessed as inhibition of MPO activity in lung tissue treated 1 hr prior challenge at 100 mg/kg, ip
Mus musculus [8] = assay: Antiinflammatory activity in C57BL/6 mouse assessed as inhibition of human neutrophil elastase-induced edema compound treated 1 hr prior challenge at 100 mg/kg, ip measured up to 240 mins; format: functional, organism-based; set-up: dose 100 mg/kg
[9] = Inhibition of bovine pancreatic trypsin using Nalpha-benzoyl-L-arginine-7-amido-4-methylcoumarin; set-up: species or system Bos taurus
Prothrombin = Prothrombin (Bos taurus, UniProt P00735); assay: Inhibition of bovine plasma thrombin using Benzoyl-Phe-Val-Arg-7-amido-4-methylcoumarin hydrochloride by spectrophotometry
Mus musculus [10] = assay: Protection from LPS-induced acute lung injury in C57BL/6 mouse assessed as inhibition of leukocyte infiltration in lung treated 1 hr prior challenge at 100 mg/kg, ip
Pancreatic elastase = Pancreatic elastase (Sus scrofa, UniProt P08419+P00772); assay: Inhibition of porcine pancreatic elastase using methoxysuccinyl-Ala-Ala-Pro-Val-p-nitroanilide as substrate preincubated for 15 mins before substrate addition measured after 60 mins by spectrophotometry; format: protein assay
Mus musculus [11] = assay: Protection from LPS-induced acute lung injury in C57BL/6 mouse assessed as inhibition of LPS-induced leukocyte infiltration treated 1 hr prior LPS challenge at 100 mg/kg, ip measured 6 hrs post LPS injection by hematoxylin and eosin staining method
[12] = Inhibition of bovine pancreas chymotrypsin using N-succinyl-Ala-Ala-Pro-Phe-7-amido-4-methylcoumarin by spectrophotometry; set-up: species or system Bos taurus
Mus musculus [13] = assay: Protection from LPS-induced acute lung injury in C57BL/6 mouse assessed as inhibition of LPS-induced diffuse edematous changes treated 1 hr prior LPS challenge at 100 mg/kg, ip measured 6 hrs post LPS injection by hematoxylin and eosin staining method
Mus musculus [14] = assay: Protection from LPS-induced acute lung injury in C57BL/6 mouse assessed as inhibition of LPS-induced lung tissue destruction treated 1 hr prior LPS challenge at 100 mg/kg, ip measured 6 hrs post LPS injection by hematoxylin and eosin staining method
Mus musculus [15] = assay: Antiinflammatory activity in C57BL/6 mouse assessed as inhibition of human neutrophil elastase-induced edema compound treated ip 1 hr prior challenge measured up to 240 mins post dose; format: functional, organism-based
Mus musculus [16] = assay: Toxicity in C57BL/6 mouse assessed as effect on pulmonary alveoli at 100 mg/kg, ip by hematoxylin and eosin staining method; format: organism-based; set-up: dose 100 mg/kg, route intraperitoneal; conditions: in vivo
Mus musculus [17] = assay: Antiinflammatory activity in C57BL/6 mouse assessed as inhibition of human neutrophil elastase-induced edema compound treated 1 hr prior challenge at 50 to 100 mg/kg, ip; format: functional, organism-based; conditions: TDE = time-dependent effect
Mus musculus [18] = assay: Toxicity in C57BL/6 mouse assessed as effect on lung structure at 100 mg/kg, ip by hematoxylin and eosin staining method; format: organism-based; set-up: dose 100 mg/kg, route intraperitoneal; conditions: in vivo

Row | SMILES | IC50 (Neutrophil [1]) [µM] | IC50 (Cathepsin G) [µM] | IC50 (Neutrophil elastase [2]) [µM] | IC50 (Neutrophil [3]) [µM] | also measured
1 | CC/C(=N/O)c1ccccc1NS(=O)(=O)c1ccc(OC(=O)C(C)(C)C)cc1 | 13.4 | > 10 | – | – | –
2 | CCOC(=O)c1ccccc1NC(=O)c1ccc(OC(=O)C(C)(C)C)cc1 | > 20 | > 10 | 0.48 | 0.3 | –
3 | CCC(=O)c1ccccc1NS(=O)(=O)c1ccc(OC(=O)C(C)(C)C)cc1 | > 20 | > 10 | 0.19 | – | –
4 | CC(C)(C)C(=O)Oc1ccc(S(=O)(=O)Nc2ccccc2C=O)cc1 | > 20 | > 10 | 0.12 | 0.05 | –
5 | COC(=O)c1ccccc1NS(=O)(=O)c1ccc(NC(=O)C(C)(C)C)cc1 | > 20 | > 10 | > 10 | 13.6 | IC50 (Myeloblastin): > 10 µM
6 | COC(=O)c1ccccc1NC(=O)c1ccc(OC(=O)C(C)(C)C)cc1 | > 20 | > 10 | 0.82 | 0.55 | –
7 | COC(=O)c1ccccc1NC(=O)c1ccc(OC(=O)C(C)(C)C(F)(F)F)cc1 | > 20 | > 10 | > 10 | > 20 | IC50 (Myeloblastin): > 10 µM
8 | CCCOC(=O)c1ccccc1NC(=O)c1ccc(OC(=O)C(C)(C)C(F)(F)F)cc1 | > 20 | > 10 | > 10 | > 20 | IC50 (Myeloblastin): > 10 µM
9 | CCCC(=O)c1ccccc1NS(=O)(=O)c1ccc(OC(=O)C(C)(C)C)cc1 | > 20 | > 10 | 0.37 | – | –
10 | CCCCC(=O)c1ccccc1NS(=O)(=O)c1ccc(OC(=O)C(C)(C)C)cc1 | > 20 | > 10 | 2.24 | 0.11 | –
11 | CC(C)(C)C(=O)Oc1ccc(S(=O)(=O)Nc2ccccc2/C=N\O)cc1 | > 20 | > 10 | – | – | –
12 | CC(=O)c1ccccc1NS(=O)(=O)c1ccc(OC(=O)C(C)(C)C)cc1 | > 20 | > 10 | 0.11 | 0.09 | –

Continued, in another order:

Row | IC50 (Neutrophil [1]) [µM] | IC50 (Cathepsin G) [µM] | IC50 (Neutrophil elastase [2]) [µM] | IC50 (Neutrophil [3]) [µM] | SMILES | also measured
13 | > 20 | > 10 | 0.13 | 0.05 | CC(C)(C)C(=O)Oc1ccc(S(=O)(=O)Nc2ccccc2C(=O)NCCO)cc1 | –
14 | > 20 | > 10 | > 10 | 9.41 | CC(C)(C)[S+]([O-])Nc1ccc(S(=O)(=O)Nc2ccccc2C=O)cc1 (centres undefined) | IC50 (Myeloblastin): > 10 µM
15 | > 20 | > 10 | 0.29 | 0.05 | CC(C)(C)C(=O)Oc1ccc(S(=O)(=O)Nc2ccccc2C(=O)OCCO)cc1 | –
16 | > 20 | > 10 | – | – | CC(C)(C)C(=O)Oc1ccc(S(=O)(=O)Nc2ccccc2C(=O)NCC(=O)O)cc1 | inhibition (Mus musculus [4]): Active; inhibition (Mus musculus [5]): Active; IC50 (Neutrophil elastase [6]): 0.145 µM; inhibition (Mus musculus [7]): Active; inhibition (Mus musculus [8]): Active; IC50 [9]: > 10 µM; IC50 (Prothrombin): > 10 µM; inhibition (Mus musculus [10]): Active; IC50 (Pancreatic elastase): 2.18517 µM; inhibition (Mus musculus [11]): Active; IC50 (Myeloblastin): 0.34 µM; IC50 [12]: 1.95 µM; inhibition (Mus musculus [13]): Active; inhibition (Mus musculus [14]): Active
17 | > 20 | > 10 | – | – | CCC/C(=N/O)c1ccccc1NS(=O)(=O)c1ccc(OC(=O)C(C)(C)C)cc1 | –
18 | 19.6 | > 10 | – | – | C/C(=N/O)c1ccccc1NS(=O)(=O)c1ccc(OC(=O)C(C)(C)C)cc1 | inhibition (Mus musculus [15]): Dose-dependent effect; inhibition (Mus musculus [4]): Active; inhibition (Mus musculus [5]): Active; Activity (Mus musculus [16]): Non-toxic; IC50 (Neutrophil elastase [6]): 0.191 µM; inhibition (Mus musculus [7]): Active; IC50 [9]: > 10 µM; IC50 (Prothrombin): > 10 µM; inhibition (Mus musculus [10]): Active; inhibition (Mus musculus [17]): tde; IC50 (Pancreatic elastase): 1.88198 µM; inhibition (Mus musculus [11]): Active; IC50 [12]: 0.594 µM; inhibition (Mus musculus [13]): Active; Activity (Mus musculus [18]): Non-toxic; inhibition (Mus musculus [14]): Active
19 | > 20 | > 10 | > 10 | 13.8 | CCOC(=O)c1ccccc1NC(=O)c1ccc(OC(=O)C(C)(C)C(F)(F)F)cc1 | IC50 (Myeloblastin): > 10 µM
20 | > 20 | > 10 | – | – | CO/N=C(/C)c1ccccc1NS(=O)(=O)c1ccc(OC(=O)C(C)(C)C)cc1 | –
21 | > 20 | > 10 | 1.23 | 0.62 | CCCOC(=O)c1ccccc1NC(=O)c1ccc(OC(=O)C(C)(C)C)cc1 | –
22 | – | > 10 | – | 4.94 | COC(=O)c1ccccc1NS(=O)(=O)c1ccc(OC(=O)C(C)(C)C(F)(F)F)cc1 | –
23 | > 20 | > 10 | – | – | CO/N=C(\C)c1ccccc1NS(=O)(=O)c1ccc(OC(=O)C(C)(C)C)cc1 | –

Reference: ChEMBL document CHEMBL3396960, “Synthesis and pharmacological characterization of 2-aminobenzaldehyde oxime analogs as dual inhibitors of neutrophil elastase and proteinase 3” (Bioorg Med Chem, 2015)
